PMC12980303, “Development of a novel risk score reflecting the relative harm potential of synthetic cannabinoids based on prevalence estimates, well‐documented intoxication cases and basic pharmacological data” (Addiction (Abingdon, England), 2025)
Read-outs that look alike come from different tables or passages of the source. Marks after values point to notes of the source that are not given here.

What was measured:
[1] = LC–MS/MS analysis of serum and urine samples of intoxication cases; assay type: in vivo, human; conditions: patient serum
Method: (§1) The data on intoxication cases used for the development of this risk score were obtained from a prospective study. This study included patients who were treated in an emergency department room following the consumption of an NPS. Clinical symptoms and follow‐up information were documented using a structured questionnaire completed by the attending physicians. The methodology has been previously published. Residual serum (obtained from venous blood) and urine samples, accompanied by the completed questionnaires, were sent to the Poisons Information Center Freiburg for further analysis. The toxicological analyses of serum and urine samples were conducted at the Institute of Forensic Medicine Freiburg. No data was available on previous consumption patterns or potential development of tolerance after continued misuse. The study was conducted in accordance with the Declaration of Helsinki and approved by the regional ethics committee of the University of Freiburg (no. 235/13_130683). The intoxication cases included in this study are those in which SCRA use was confirmed by liquid chromatography tandem mass spectrometry (LC–MS/MS).
Serum/blood and urine analyses were conducted at the Institute of Forensic Medicine Freiburg using previously published LC–MS/MS methods, that were modified by adding further analytes present in ‘legal‐high’ products (‘herbal blends’, ‘C‐liquids’ or ‘research chemicals’), and covered approximately 100 different SCRAs. Detailed information can be found in the Supporting Information.
Urine samples were analysed according to previously published and validated method by Franz et al.^2. For sample preparation 0.5 mL of phosphate buffer (pH 6) and 30 μL of β-glucuronidase were added to 0.5 mL of urine. Incubation was for 60 min at 45°C. This was followed by protein precipitation using 1.5 mL acetonitrile containing the internal standard (c = 2 ng/mL) and 0.56 mL 10 M ammonium formate solution, followed by shaking and centrifugation. 1 mL of the organic phase was transferred into an autosampler vial and evaporated to dryness under N2. The samples were reconstituted in 200 μL mobile phase.
Urine sample analysis was performed on a Dionex UltiMate® 3000RS UHPLC (Thermo Scientific, Dreieich, Germany) coupled to an API 5000^TM triple quadrupole instrument with a TurboIonSpray® interface (Sciex, Darmstadt, Germany). Separation was performed on a Luna C18 100 Å (150 x 2 mm, 5 μm) column with the mobile phase consisting of 0.2% HCOOH and 2 mmol/L NH^4+HCOO^− in water (A) and acetonitrile (B).

[2] = risk score from prevalence in routine forensic samples and intoxication cases (G1, PSS, TSS); design: species or system human
Description: Therefore, higher values indicate substances with a higher risk. […] To take into account the severity of symptoms and the contribution of the specific NPS, two further summands were introduced. The first is based on the PSS, the second on the TSS. Again, higher values were associated with more severe symptoms and a stronger role of the NPS in causing the symptoms.
The risk score is composed of three components (parts G1, G2 and G3) and was designed as follows: (1) Gx=G1x+G2x+G3x,
Equation 2 takes into consideration several components: the number of intoxications with SCRA x in quarter k over the total number of intoxications of all investigated SCRAs in the same quarter; the number of serum/blood samples positive for SCRA x over the total number of serum/blood samples positive for all SCRAs plus the number of urine samples positive for SCRA x over the total number of urine samples positive for all SCRAs (this is divided by two to account for the two different sample types); and the number of quarters in which the SCRA x was prevalent. (2) G1x=∑k=1gak/bk/ck/dk+ek/fk/2/h+i
Consequently, equation 2 was mathematically rearranged. To further simplify the equation and reduce the formula signs, in equation 3 the following simplifications were taken: a/b=ai , c/d=as and e/f=au .
The sum of these quotients was divided by the number of all prevalent quarters (q p ). Prevalent quarters were defined as quarters in which on average the substance was detected in more than 5% of the positive serum and urine samples. If a poisoning occurred in a quarter in which the substance was not prevalent, the number of these quarters was added (q i ). This part of the score has similarities with an OR [42]. If the proportion of routine samples in a given quarter in which an intoxication with the respective substance occurred was zero (a s + a u = 0), a value of 0.01 was used for that quarter in the calculation of the quotient to avoid division by zero.
For part G2, the severity of the intoxication caused by the respective SCRA x was assessed on the basis of reported symptoms and follow‐up information using the PSS [20]. The PSS classifies the intoxication severity into five levels: (0) no, (1) mild, (2) moderate, (3) severe, and (4) fatal intoxication. […] For this purpose, the mean value of the PSS of all intoxications with the respective SCRA x was calculated ( G2x) .
For part G3, the involvement of the SCRA in the respective intoxications was assessed. This was evaluated on the basis of the TSS [21]. Elliott et al. developed the TSS to assess and classify the contribution of NPS in fatalities. In the present study, the TSS was determined to weigh the involvement of the investigated SCRA in the intoxication and the contribution of the SCRA to the observed symptoms. To determine the TSS value, factors such as the determined concentration of the SCRA, the presence of other recreational drugs or medicinal drugs, the general health of the patient and the consumption circumstances need to be considered. […] In cases with more than one drug detected, a TSS of 3 was only assigned where other compounds were present at concentrations below the range in which relevant effects are to be expected.
For the risk score, the mean value of the TSS of all intoxications with substance x was calculated ( G3x) . Analogous to the value of G2x , the value of G3x can theoretically be between 1 and 3. With a value of ‘1’, substance x was not mainly responsible for the symptoms in all of the intoxications (low level of significance), and with a value of ‘3’, it was the main cause in every poisoning in which it was detected.

hCB1 receptor [3] = target: T1, hCB1 receptor (Homo sapiens, UniProt P21554); test: functional [35S]GTPγS hCB1 activation assay; assay type: biochemical
T1 sequence (P21554 whole entry): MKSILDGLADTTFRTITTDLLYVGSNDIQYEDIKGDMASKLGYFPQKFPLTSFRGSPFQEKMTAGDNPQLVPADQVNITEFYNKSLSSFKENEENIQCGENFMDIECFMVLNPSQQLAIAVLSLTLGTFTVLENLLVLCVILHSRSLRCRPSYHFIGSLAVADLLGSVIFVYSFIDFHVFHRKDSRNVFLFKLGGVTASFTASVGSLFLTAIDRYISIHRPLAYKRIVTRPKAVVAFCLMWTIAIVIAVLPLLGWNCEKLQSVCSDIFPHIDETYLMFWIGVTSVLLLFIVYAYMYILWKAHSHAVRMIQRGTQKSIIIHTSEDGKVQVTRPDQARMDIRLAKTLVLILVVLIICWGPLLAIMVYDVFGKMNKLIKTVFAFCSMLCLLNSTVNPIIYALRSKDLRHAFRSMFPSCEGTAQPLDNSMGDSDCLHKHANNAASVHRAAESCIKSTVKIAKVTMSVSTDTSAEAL
Method: (§2) Receptor assays were performed on three different days and each concentration was tested in duplicate.

hCB1 receptor [4] = target: T1, hCB1 receptor; test: competitive [3H]CP‐55940 radioligand binding assay (hCB1 receptor affinity); conditions: Ki [nM] (95% CI), [3H]CP‐55940 competition, hCB1 membrane preparations (HEK293‐EBNA), Cheng–Prusoff; 95% CI in brackets
Method: as §2
From the IC50, the respective Ki values were calculated using the Cheng–Prusoff equation [39].

[5] = occurrence of SCRAs in intoxication samples of the prospective study; design: species or system human; conditions: 2013 to 2021
Description: For this study, the 10 SCRAs (AB‐[…], ADB‐[…], AB‐FUBINACA, FUB‐AMB, Cumyl‐PEGACLONE, MDMB‐4en‐PINACA, MDMB‐CHMICA, 5F‐MDMB‐PICA, 5F‐ADB and 5F‐PB‐22) which were most frequently detected in intoxications in a prospective observational study during the time period of 2013 to 2021 were selected (see Table 1). Additionally, JWH‐210, a model compound representative of the early SCRAs, along with two substances prevalent in screenings during years 2019/2020 (5F‐Cumyl‐PEGACLONE and 4F‐MDMB‐BICA), were included in this study (see Tables S2–S7). […] JWH‐018 was also included as a reference compound because of its historical use in this capacity. Including both reference compounds facilitates direct comparison with previously published data, thereby enhancing the relevance and interpretability of the results obtained in the present study. Information on the origin of the test and reference compounds and all chemicals used in this study can be found in Table S1.
as §1

hCB1 receptor [6] = target: T1, hCB1 receptor; conditions: ref Wouters et al. [31], cited from earlier work
hCB1 receptor [7] = target: T1, hCB1 receptor; design: method as in Gamage et al. [40]; conditions: cited from earlier work
[8] = intoxication case B (AB‐CHMINACA)

CNC(C)C(=O)c1cccc(C)c1 (stereo not shown) [3‐MMC]
Concentration in serum ([1]; intoxication case A (AB‐CHMINACA)): 320 ng/mL | Concentration in serum ([1]; intoxication case A (AB‐CHMINACA), listed as 3-MMC): ~3-MMC approximately 320 ng/mL

O=C(NC12CC3CC(CC(C3)C1)C2)c1nn(CCCCCF)c2ccccc12 [5F-AKB-48]
Concentration in serum [1, 8]: < 0.1 ng/mL

O=C(Oc1cccc2cccnc12)c1cn(CCCCCF)c2ccccc12 [5F‐PB‐22]
G total (risk score) ([2]; G1+G2+G3, higher value = greater toxicological risk): 9.9 | G2 ([2]; mean Poison Severity Score (PSS) of all intoxications with the SCRA): 1.9 | G3 ([2]; mean Toxicological Significance Score (TSS) of all intoxications with the SCRA): 2.7 | G1 ([2]; proportion in intoxication cases relative to prevalence in routine serum/blood and urine samples per quarter, 2013–2021, >1 over‐represented in intoxications): 5.3 | EC50 (hCB1 receptor [3]): 2730 pM | Emax (hCB1 receptor [3]; read-out: [35S]‐GTPγS assay Emax [%] (95% CI)): 124% | Ki (hCB1 receptor [4]): 0.0996 nM | No. of intoxications ([5]; 139 intoxication samples of the prospective study): 13 | Percentage in % ([5]; proportion of 139 intoxications in which the substance was detected): 9.4% | Concentration in serum [1, 8]: ~1.5 ng/mL | EC50 (hCB1 receptor [6]; read-out: βarr2 assay EC50 [nM] (95% CI)): 0.32 nM | βarr2 assay Emax [%] (95% CI) (hCB1 receptor [6]; relative to CP‐55940): 980.2 ^d (888.2–1072) %

COC(=O)C(NC(=O)c1nn(Cc2ccc(F)cc2)c2ccccc12)C(C)C (stereo not shown) [FUB‐AMB]
EC50 (hCB1 receptor [7]; read-out: [35S]‐GTPγS assay EC50 [nM] (95% CI), ref Gamage et al. [40]): 0.543 nM | [35S]‐GTPγS assay Emax [%] (95% CI) (hCB1 receptor [7]; relative to CP‐55940, cell without footnote mark, EC50 of the same line from ref Gamage et al. [40]): 69.42 (62.6–76.2) %

CCCCCn1nc(C(=O)c2cccc3ccccc23)c2ccccc21 [THJ-018]
Concentration in serum [1, 8]: < 0.1 ng/mL

O=C(c1cccc2ccccc12)c1nn(CCCCCF)c2ccccc12 [THJ-2201]
Concentration in serum [1, 8]: < 0.1 ng/mL
